Assay results published in patent US10758534B2 (Vertex Pharmaceuticals Incorporated, priority 2014, dated 2020).

biological target: T1, F508del (Homo sapiens, UniProt P13569, DEL508-508); assay: Protocol 2: FRET membrane potential optical assay (VIPR), identification of correction compounds; format: cell-based; details: Table 3; compounds of Table 1 as modulators of CFTR activity; protocol not stated
T1 construct: expressed in transfected cells
Procedure, shortened: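 Corrector readout: membrane-potential FRET (CC2-DMPE donor, DiSBAC2(3) acceptor) on VIPR II after Cl⁻-free gluconate bath with 10 μM forskolin and 20 μM genistein. Before this, F508del-expressing NIH3T3 cells were exposed to test compound for 16 h at 37 °C without serum; 27 °C incubation served as temperature-correction control.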

T1 sequence (P13569 with tags, fused parts or gaps DEL508-508): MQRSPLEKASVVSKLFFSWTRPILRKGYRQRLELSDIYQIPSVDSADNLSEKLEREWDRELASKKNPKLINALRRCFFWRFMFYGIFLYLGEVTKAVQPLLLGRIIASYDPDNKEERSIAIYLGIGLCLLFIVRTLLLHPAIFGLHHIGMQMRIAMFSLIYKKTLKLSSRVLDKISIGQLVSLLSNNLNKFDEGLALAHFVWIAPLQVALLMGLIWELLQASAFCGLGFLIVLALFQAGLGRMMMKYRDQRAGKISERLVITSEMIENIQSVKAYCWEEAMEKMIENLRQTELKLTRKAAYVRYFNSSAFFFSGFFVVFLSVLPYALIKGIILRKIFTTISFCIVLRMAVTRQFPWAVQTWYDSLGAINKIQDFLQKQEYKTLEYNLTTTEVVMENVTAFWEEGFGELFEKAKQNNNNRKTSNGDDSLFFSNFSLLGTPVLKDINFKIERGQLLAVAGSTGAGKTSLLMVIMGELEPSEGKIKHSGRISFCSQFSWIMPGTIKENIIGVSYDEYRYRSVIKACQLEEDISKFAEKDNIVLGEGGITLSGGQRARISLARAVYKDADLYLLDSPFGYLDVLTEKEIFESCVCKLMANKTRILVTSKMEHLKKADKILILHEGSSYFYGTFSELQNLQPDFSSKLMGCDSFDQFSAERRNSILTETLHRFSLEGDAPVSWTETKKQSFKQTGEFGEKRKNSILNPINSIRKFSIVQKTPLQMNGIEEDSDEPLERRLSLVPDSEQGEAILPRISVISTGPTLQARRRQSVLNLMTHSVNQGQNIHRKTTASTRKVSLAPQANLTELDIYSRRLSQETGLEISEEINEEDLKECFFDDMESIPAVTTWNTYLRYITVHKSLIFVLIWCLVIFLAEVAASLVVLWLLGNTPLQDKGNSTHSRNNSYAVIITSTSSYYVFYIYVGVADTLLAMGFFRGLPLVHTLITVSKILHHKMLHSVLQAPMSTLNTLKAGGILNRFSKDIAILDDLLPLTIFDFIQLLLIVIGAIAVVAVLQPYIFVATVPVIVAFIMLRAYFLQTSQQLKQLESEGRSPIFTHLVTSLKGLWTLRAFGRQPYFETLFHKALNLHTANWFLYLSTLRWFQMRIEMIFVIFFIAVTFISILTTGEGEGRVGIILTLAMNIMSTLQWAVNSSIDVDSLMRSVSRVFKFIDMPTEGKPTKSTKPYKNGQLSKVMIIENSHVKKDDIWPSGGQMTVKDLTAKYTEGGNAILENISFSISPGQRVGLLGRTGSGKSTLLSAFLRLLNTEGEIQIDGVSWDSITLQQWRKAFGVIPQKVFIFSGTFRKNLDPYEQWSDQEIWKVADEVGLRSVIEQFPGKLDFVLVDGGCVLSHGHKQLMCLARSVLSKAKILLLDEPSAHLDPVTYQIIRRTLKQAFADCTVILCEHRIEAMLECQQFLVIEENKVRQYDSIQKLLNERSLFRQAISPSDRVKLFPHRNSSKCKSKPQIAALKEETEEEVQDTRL

EC30	Structure (SMILES)
+++ (“+++” means <3 uM)	Cc1cc(C)c(Oc2nc(C(C)(C)C)ccc2C(=O)NS(=O)(=O)c2cccc(C(F)F)n2)c(C)c1 [Compound 501, 6-tert-butyl-N-[[6-(difluoromethyl)-2-pyridyl]sulfonyl]-2-(2,4,6-trimethylphenoxy)pyridine-3-carboxamide]
+++ (“+++” means <3 uM)	CC(C)Oc1ccc(-c2ccc(C(=O)NS(=O)(=O)c3cccc(N)n3)c(N3CC(c4ccccc4)CC3C)n2)cn1 (centres unmarked) [Compound 502, N-[(6-amino-2-pyridyl)sulfonyl]-6-(6-isopropoxy-3-pyridyl)-2-(2-methyl-4-phenyl-pyrrolidin-1-yl)pyridine-3-carboxamide]
++ (“++” means between 3 uM and 10 uM)	Cc1cc(C)c(Oc2nc(-c3cc(O)cc(F)c3)ccc2C(=O)NS(=O)(=O)c2cccc(N)n2)c(C)c1 [Compound 505, N-[(6-amino-2-pyridyl)sulfonyl]-6-(3-fluoro-5-hydroxy-phenyl)-2-(2,4,6-trimethylphenoxy)pyridine-3-carboxamide]
+++ (“+++” means <3 uM)	CCOc1ccc(-c2ccc(C(=O)NS(=O)(=O)c3nccnc3N)c(N3CCC(C)CC3)n2)cc1 [Compound 507, N-(3-aminopyrazin-2-yl)sulfonyl-6-(4-ethoxyphenyl)-2-(4-methyl-1-piperidyl)pyridine-3-carboxamide]
++ (“++” means between 3 uM and 10 uM)	Cc1cc(C)c(CN2Cc3c(-c4ccccc4)cccc3C2C(=O)NS(=O)(=O)c2ccc[nH]c2=O)c(C)c1 (centres unmarked) [Compound 508, N-[(2-oxo-1H-pyridin-3-yl)sulfonyl]-4-phenyl-2-[(2,4,6-trimethylphenyl)methyl]isoindoline-1-carboxamide]
++ (“++” means between 3 uM and 10 uM)	COc1ccc(S(=O)(=O)NC(=O)c2ccc(C(C)(C)C)nc2-c2ccc(C)cc2)cn1 [Compound 512, 6-tert-butyl-N-[(6-methoxy-3-pyridyl)sulfonyl]-2-(p-tolyl)pyridine-3-carboxamide]
++ (“++” means between 3 uM and 10 uM)	Cc1cc(C)c(Oc2nc(-c3ccc(C)nc3)ccc2C(=O)NS(=O)(=O)c2cccc(N)n2)c(C)c1 [Compound 513, N-[(6-amino-2-pyridyl)sulfonyl]-6-(6-methyl-3-pyridyl)-2-(2,4,6-trimethylphenoxy)pyridine-3-carboxamide]
+ (“+” means greater than 10 uM)	Cc1cc(C)c(Oc2nc(-c3ccncc3F)ccc2C(=O)NS(=O)(=O)c2cccc(N)n2)c(C)c1 [Compound 514, N-[(6-amino-2-pyridyl)sulfonyl]-6-(3-fluoro-4-pyridyl)-2-(2,4,6-trimethylphenoxy)pyridine-3-carboxamide]
++ (“++” means between 3 uM and 10 uM)	CCOc1ccc(-c2ccc(C(=O)NS(=O)(=O)c3ccc[nH]c3=O)c(Oc3ccc(C)cc3C)n2)cc1 [Compound 517, 2-(2,4-dimethylphenoxy)-6-(4-ethoxyphenyl)-N-[(2-oxo-1H-pyridin-3-yl)sulfonyl]pyridine-3-carboxamide]
+++ (“+++” means <3 uM)	Cc1cc(C)c(Oc2nc(-c3ccc(F)cc3)ccc2C(=O)NS(=O)(=O)c2cc[nH]n2)c(C)c1 [Compound 518, 6-(4-fluorophenyl)-N-(1H-pyrazol-3-ylsulfonyl)-2-(2,4,6-trimethylphenoxy)pyridine-3-carboxamide]
+++ (“+++” means <3 uM)	CC1CN(c2nc(-c3ccc(OC(C)C)nc3)ccc2C(=O)NS(=O)(=O)c2cccc(N)n2)CC(C)(C)C1 (centres unmarked) [Compound 520, N-[(6-amino-2-pyridyl)sulfonyl]-6-(6-isopropoxy-3-pyridyl)-2-(3,3,5-trimethyl-1-piperidyl)pyridine-3-carboxamide]
+++ (“+++” means <3 uM)	CCCC1CCCN(c2nc(-c3ccc(OC(C)C)nc3)ccc2C(=O)NS(=O)(=O)c2cccc(N)n2)C1 (centres unmarked) [Compound 522, N-[(6-amino-2-pyridyl)sulfonyl]-6-(6-isopropoxy-3-pyridyl)-2-(3-propyl-1-piperidyl)pyridine-3-carboxamide]
+++ (“+++” means <3 uM)	COc1ncccc1-c1ccc(C(=O)NS(=O)(=O)c2cccc(N)n2)c(N2CC(C)CC2(C)C)n1 (centres unmarked) [Compound 526, N-[(6-amino-2-pyridyl)sulfonyl]-6-(2-methoxy-3-pyridyl)-2-(2,2,4-trimethylpyrrolidin-1-yl)pyridine-3-carboxamide]
++ (“++” means between 3 uM and 10 uM)	CC(C)(C)c1ccc(C(=O)NS(=O)(=O)c2cccc(N)n2)c(C2=CCCC2)n1 [Compound 529, N-[(6-amino-2-pyridyl)sulfonyl]-6-tert-butyl-2-(cyclopenten-1-yl)pyridine-3-carboxamide]

Further lines, the compound ahead of its results:

Structure (SMILES)	EC30
CC(C)COc1cc(F)cc(-c2ccc(C(=O)NS(=O)(=O)c3cccc(N)n3)c(OC3CCC(C)C3C)n2)c1 (centres unmarked) [Compound 503, N-[(6-amino-2-pyridyl)sulfonyl]-2-(2,3-dimethylcyclopentoxy)-6-(3-fluoro-5-isobutoxy-phenyl)pyridine-3-carboxamide]	+++ (“+++” means <3 uM)
CC1CN(c2nc(-c3ccc(Cl)c(OC(C)C)c3)ccc2C(=O)NS(=O)(=O)c2cccc(N)n2)C(C)(C)C1 (centres unmarked) [Compound 504, N-[(6-amino-2-pyridyl)sulfonyl]-6-(4-chloro-3-isopropoxy-phenyl)-2-(2,2,4-trimethylpyrrolidin-1-yl)pyridine-3-carboxamide]	+++ (“+++” means <3 uM)
CC(C)COc1cc(F)cc(-c2ccc(C(=O)NS(=O)(=O)c3ccn[nH]3)c(N3CCC4(CC3)OCc3ccccc34)n2)c1 [Compound 506, 6-(3-fluoro-5-isobutoxy-phenyl)-N-(1H-pyrazol-5-ylsulfonyl)-2-spiro[1H-isobenzofuran-3,4′-piperidine]-1′-yl-pyridine-3-carboxamide]	+++ (“+++” means <3 uM)
CC(C)Oc1ccc(-c2ccc(C(=O)NS(=O)(=O)c3cccc(N)n3)c(N3CCCC3c3ccccc3)n2)cn1 (centres unmarked) [Compound 509, N-[(6-amino-2-pyridyl)sulfonyl]-6-(6-isopropoxy-3-pyridyl)-2-(2-phenylpyrrolidin-1-yl)pyridine-3-carboxamide]	+++ (“+++” means <3 uM)
COc1cccc(S(=O)(=O)NC(=O)c2ccc(-c3cc(F)cc(OCC(C)C)c3)nc2N2CCC(C)(C)CC2)c1 [Compound 510, 2-(4,4-dimethyl-1-piperidyl)-6-(3-fluoro-5-isobutoxy-phenyl)-N-(3-methoxyphenyl)sulfonyl-pyridine-3-carboxamide]	+++ (“+++” means <3 uM)
CC(C)COc1cccc(-c2ccc(C(=O)NS(=O)(=O)c3ccc[nH]c3=O)c(N3[C@H](C)CC[C@@H]3C)n2)c1 [Compound 511, 2-[(2S,5R)-2,5-dimethylpyrrolidin-1-yl]-6-(3-isobutoxyphenyl)-N-[(2-oxo-1H-pyridin-3-yl)sulfonyl]pyridine-3-carboxamide]	+++ (“+++” means <3 uM)
Cc1cc(C)c(Oc2nc(C(C)(C)C)ccc2C(=O)N=S(N)(=O)c2cccc(N)n2)c(C)c1 (centres unmarked) [Compound 515, N-[amino-(6-amino-2-pyridyl)-oxo-$1^6-sulfanylidene]-6-tert-butyl-2-(2,4,6-trimethylphenoxy)pyridine-3-carboxamide]	+++ (“+++” means <3 uM)
CC(C)COc1cc(F)cc(-c2ccc(C(=O)NS(=O)(=O)c3cccc(N)n3)c(N(C)C(C)C3CC3)n2)c1 (centres unmarked) [Compound 516, N-[(6-amino-2-pyridyl)sulfonyl]-2-[1-cyclopropylethyl(methyl)amino]-6-(3-fluoro-5-isobutoxy-phenyl)pyridine-3-carboxamide]	+++ (“+++” means <3 uM)
CC(C)COc1cc(F)cc(-c2ccc(C(=O)NS(=O)(=O)c3ccn[nH]3)c(N3CCCC4(COC4)C3)n2)c1 [Compound 519, 6-(3-fluoro-5-isobutoxy-phenyl)-2-(2-oxa-8-azaspiro[3.5]nonan-8-yl)-N-(1H-pyrazol-5-ylsulfonyl)pyridine-3-carboxamide]	++ (“++” means between 3 uM and 10 uM)
CC(C)Oc1ccc(-c2ccc(C(=O)NS(=O)(=O)c3cccc(N)n3)c(N3CC4CCC3C4)n2)cn1 (centres unmarked) [Compound 521, N-[(6-amino-2-pyridyl)sulfonyl]-2-(3-azabicyclo[2.2.1]heptan-3-yl)-6-(6-isopropoxy-3-pyridyl)pyridine-3-carboxamide]	++ (“++” means between 3 uM and 10 uM)
CC(C)CNc1cc(-c2ccc(C(=O)NS(=O)(=O)c3cccc(N)n3)c(N3CC(C)CC3(C)C)n2)ccn1 (centres unmarked) [Compound 523, N-[(6-amino-2-pyridyl)sulfonyl]-6-[2-(isobutylamino)-4-pyridyl]-2-(2,2,4-trimethylpyrrolidin-1-yl)pyridine-3-carboxamide]	+++ (“+++” means <3 uM)
COc1ncccc1S(=O)(=O)NC(=O)c1ccc(-c2ccc(C)cc2)nc1-c1ccc(C)cc1 [Compound 524, N-[(2-methoxy-3-pyridyl)sulfonyl]-2,6-bis(p-tolyl)pyridine-3-carboxamide]	++ (“++” means between 3 uM and 10 uM)
Cc1cc(C)c(Oc2nc(-c3cccc4c3OCO4)ccc2C(=O)NS(=O)(=O)c2ccc[nH]c2=O)c(C)c1 [Compound 525, 6-(1,3-benzodioxol-4-yl)-N-[(2-oxo-1H-pyridin-3-yl)sulfonyl]-2-(2,4,6-trimethylphenoxy)pyridine-3-carboxamide]	++ (“++” means between 3 uM and 10 uM)
CC(C)COc1cc(F)cc(-c2ccc(C(=O)NS(=O)(=O)c3cccc(N)n3)c(N3CC4(CCC4)C3)n2)c1 [Compound 527, N-[(6-amino-2-pyridyl)sulfonyl]-2-(6-azaspiro[3.3]heptan-6-yl)-6-(3-fluoro-5-isobutoxy-phenyl)pyridine-3-carboxamide]	+++ (“+++” means <3 uM)
CC(C)COc1cc(F)cc(-c2ccc(C(=O)NS(=O)(=O)c3ccn[nH]3)c(N3CCC(C)C(C)C3)n2)c1 (centres unmarked) [Compound 528, 2-(3,4-dimethyl-1-piperidyl)-6-(3-fluoro-5-isobutoxy-phenyl)-N-(1H-pyrazol-5-ylsulfonyl)pyridine-3-carboxamide]	+++ (“+++” means <3 uM)
